Values of other authors as cited in patent publication US20240423997A1, “METHOD OF TREATING AMYOTROPHIC LATERAL SCLEROSIS” (priority 2021, published 2024).

Conditions: in vivo; Shibuya 2001; cited from earlier work

In the case of `O=S(=O)(c1cccc2c(O)nccc12)N1CCCNCC1` [M3, hydroxyfasudil], the half-life is given as “about 8 hours”.
